Entries after “also recorded” stand apart in the source; their conditions may differ.
Experiments:
[1] = system: citric acid-induced cough; test: Citric acid-induced cough in guinea pigs; details: for inhibition of the cough response to citric acid inhalation: aerosolized 1 mM inhaled for 10 min prior to citric acid 0.25 M; for motor activity (behavioral effect, not quantified): guinea pigs, 1 mM aerosolized for 10 min
Method: After the period of acclimatisation to laboratory conditions, animals were individually placed in a transparent perspex box (20×10×10 cm, Vetrotecnica, Italy) ventilated with a constant airflow of 400 ml/min. The tussive agents (citric acid 0.25 M) was nebulised via a mini-ultrasonic nebuliser (Ugo Basile, Italy). […] The appearance of cough was detected by means of a tie-clip microphone (Sony, Japan) and confirmed by the characteristic posture of the animal. The cough sounds were recorded and digitally stored. The number of elicited cough efforts was subsequently counted by a blind observer.
All experiments were carried out at the same time of day. To elicit cough, guinea pigs were exposed to aerosols of citric acid for 10 min.
(§1) Values were presented as mean±standard error of the mean (SEM). Comparisons between groups were made by one way analysis of variance (ANOVA) and the Dunnett's test for multiple comparisons. A p value of <0.05 was considered significant.

human small bronchi [2] = test: Human bronchi contraction produced by electric field stimulation (EFS), organ bath; details: 0.1 mM and 1 mM; EFS 30 Hz, 0.5 ms, 10 sec, 70V; with L-NAME, indomethacin, propranolol
From the text: In a separate set of experiments, human bronchi were electrically stimulated (30 Hz, 0.5 ms pulse width, duration 10 sec, 70V).

human small bronchi [3] = test: Human bronchi contraction induced by acetylcholine, organ bath; details: 0.1 mM and 1 mM, 15 min before the stimulus; ACh 100 nM-10 mM
Method: The human samples were taken from 10 different patients who were undergoing lung resection for a solitary peripheral carcinoma. […] The bronchial rings (from 3 to 11 from each sample) were taken from the lobar or segmental bronchus of the lobe obtained at surgery, away from the tumor site.
Tissues were fixed to the base of the organ bath and connected to an isometric force transducer. […] During the initial stabilization period (90 min) tissues were washed six times. A challenge with acetyl choline (Ach) (1 mM) was performed and after washing, the tissue was allowed to equilibrate for an additional 90 min. To prevent peptide degradation phosphoramidon (1 μM) was added to the bath. Viability of the tissues was tested with the response to ACh (1 mM).
Experiments in human bronchi were performed in the presence of L-NAME (100 μM) to block the production of nitric oxide, indomethacin (5 μM) to block the production of prostanoids and propranolol (1 μM) to block β-adrenoceptors.
as §1

[4] = system: citric acid induced cough; details: guinea pigs; Lalloo et al., Trevisani et al.; cited from earlier work
rat spinal tissues = details: only after inflammation or activation of protein kinase C; Pain 2003, 105, 133-141; cited from earlier work

NC[C@]1(CC(=O)O)C[C@H]2CC[C@H]2C1 [Compound A, (1α, 3α,5α)(3-amino-methyl-bicyclo[3.2.0]hept-3-yl)-acetic acid]
inhibition of the cough response to citric acid inhalation [1]: significant inhibition | motor activity (behavioral effect, not quantified) [1]: some degree of reduction in motor activity | effect on the contractile response produced by EFS (human small bronchi [2]): significant (p<0.05) inhibitory effect | inhibition of the contraction caused by acetylcholine (human small bronchi [3]): did not produce any significant inhibition; also recorded: Absence of effect

Oc1cc2c(cc1O)CN(C(=S)NCCc1ccc(Cl)cc1)CCC2 [capsazepine]
effect on citric acid induced cough [4]: inhibited this response

NCC1(CC(=O)O)CCCCC1 [gabapentin, 1-(aminomethyl)-cyclohexylacetic acid]
inhibition of the cough response to citric acid inhalation [1]: significant inhibition | motor activity (behavioral effect, not quantified) [1]: some degree of reduction in motor activity | effect on the contractile response produced by EFS (human small bronchi [2]): significant (p<0.05) inhibitory effect | inhibition of the contraction caused by acetylcholine (human small bronchi [3]): did not produce any significant inhibition; also recorded: Absence of effect | release of substance P and CGRP (rat spinal tissues): reduce release of substance P and CGRP

C=C(C)[C@]12C[C@@H](C)[C@@]34O[C@](Cc5ccccc5)(O[C@@H]1[C@@H]3C=C(COC(=O)Cc1cc(I)c(O)c(OC)c1)C[C@]1(O)C(=O)C(C)=C[C@@H]41)O2 [iodo-resiniferatoxin]
effect on citric acid induced cough [4]: inhibited this response

CC(C)C[C@H](CN)CC(=O)O [pregabalin, (S)-(+)-4-amino-3-(2-methylpropyl)butanoic acid]
release of substance P and CGRP (rat spinal tissues): reduce release of substance P and CGRP
